For data set [1], the target named is T1, Rat Striatal Nicotinic Acetylcholine Receptors ([^3H]nicotine binding sites) (Rattus norvegicus, UniProt P09483+P12390).
T1 construct: Striata from two rats were dissected, pooled, and homogenized; from tissue; host or cells: rat striatum membranes
Briefly: biochemical. The conditions noted are these: read-out: Ki, specific binding of [^3H]-nicotine. As to the method:
Striata from two rats were dissected, pooled, and homogenized with a Tekmar polytron in 10 volumes of ice-cold modified Krebs-HEPES buffer (20 mM HEPES, 118 mM NaCl, 4.8 mM KCl, 2.5 mM CaCl2, 1.2 mM MgSO4, adjusted to pH 7.5). The homogenates were incubated at 37° C. for five minutes and centrifuged at 15,000 g for 20 minutes. The pellet was resuspended in ten volumes of ice-cold MilliQ water, incubated for five minutes at 37° C., and centrifuged at 15,000 g for 20 minutes The second pellet was then resuspended in ten volumes of fresh ice-cold 10% Krebs-HEPES buffer, incubated at 37° C., and centrifuged at 15,000 g for 20 minutes. The latter sequence of resuspension, incubation, and centrifugation was repeated. The pellet was frozen under fresh 10% Krebs-HEPES buffer and stored at −40° C. until assay. Upon assay, the pellet was resuspended in the Krebs-HEPES buffer, incubated at 37° C. for five minutes, and centrifuged at 15,000 g for 20 minutes. The final pellet was resuspended in 3.6 ml ice-cold MilliQ water which provided for approximately 200 μg protein per 100 μl aliquot. Competition assays were performed in duplicate in a final volume of 200 μl Krebs-HEPES buffer containing […] Tris buffer (pH 7.5 at 4° C.). […] After a 90 minute incubation at 4° C., reactions were terminated by dilution of the samples with 3 ml of ice-cold Krebs-HEPES buffer followed immediately by filtration through Whatman GF/B glass fiber filters (presoaked in 0.5% polyethyleneimine) using a Brandel Cell Harvester. Filters were rinsed three times with 3 ml of ice-cold Krebs-HEPES buffer, transferred to scintillation vials, and 5 ml scintillation cocktail (Research Products International Corp., Mt. Prospect, Ill.) added. […] Binding parameters were determined using the weighted, least squares non-linear regression.

Data set [2] concerns the target T2, α7-type neuronal nicotinic acetylcholine receptors (Rattus norvegicus, UniProt Q05941).
T2 construct: Rat brain was dissected into the whole brain tissue without cortex, striatum and cerebellum; from tissue; host or cells: rat brain (without cortex, striatum, cerebellum) membranes
In kind it is binding. Particulars: read-out: Ki, [^3H]MLA binding. As to the method:
Rat brain was dissected into the whole brain tissue without cortex, striatum and cerebellum and was frozen in liquid nitrogen and stored at −70° C. until use.
The brain tissue was homogenized with a Tekmar Polytron (setting 40) in 20 volumes of ice-cold hypotonic buffer (2 mM HEPES, 14.4 mM NaCl, 0.15 mM KCl, 0.2 mM CaCl2 and 0.1 mM MgSO4, pH=7.5). The homogenate was incubated at 37° C. for ten minutes and centrifuged at 25,000×g for 15 minutes at […] The pellet was washed three times more by resuspension in the 20 volumes of the same buffer and centrifugation at the above parameters. The final pellet was stored at −20° C. under 4.6 ml of the incubation buffer and was suspended just before the incubation with radioligand.
[^3H]MLA (25.4 Ci/mmol) was purchased from Tocris Cookson Ltd., Bristol, U.K. Binding was performed in duplicate, in a final volume of 250 μl of the incubation medium, containing 20 mM HEPES, 144 mM NaCl, 1.5 mM KCl, 2 mM CaCl2, 1 mM MgSO4 and 0.05% BSA, pH=7.5. Reaction was initiated by the addition of 100 μl of membrane suspension to the samples containing a desired concentration of test compounds and […] [^3H] MLA (final concentration) and incubated for 2 hours at room temperature. […] The binding reaction was terminated by dilution of samples with 3 ml of ice-cold incubation buffer followed by immediate filtration through presoaked in 0.5% polyethylenimine glass fiber filters (S&S, grade #32) using a Brandel harvester system. Filters were rinsed three times with 3 ml of ice-cold buffer, transferred to scintillation-vials and 4 ml of scintillation cocktail was added. Protein was measured using the Bradford dye-binding procedure with bovine serum albumin as the standard.

Data set [3] has as its target nAChR mediating nicotine-evoked [^3H]DA release (α3β2* receptor subtype). The data set is classed as cell-based, rat. Particulars: read-out: IC50, S-(−)-nicotine-evoked [^3H]DA release. As to the method:
Slices were rinsed with 15 mL of fresh buffer and incubated for an additional 30 minutes in fresh buffer containing 0.1 μM [^3H]DA (6 slices/3 ml). Subsequently, slices were rinsed with 15 ml of fresh buffer and transferred to a glass superfusion chamber.
Radioactivity in the superfusate and tissue samples was determined by liquid scintillation spectroscopy. […] Basal [^3H]outflow was calculated from the average of the tritium collected in the two five minute samples just before addition of the bis-alkyl pyridino analog. […] [^3H]Overflow was calculated by subtracting the [^3H]outflow during an equivalent period of prestimulation from the values in samples collected during and after drug exposure. Inasmuch as the radiolabelled compounds were not separated and identified, the tritium collected in superfusate is referred to as either [^3H]outflow or [^3H]overflow, rather than as [^3H]DA.

Data set [4] has as its system nAChR subtypes mediating nicotine-evoked [^3H]-dopamine overflow. Particulars: for IC50: read-out: Nicotine-evoked [^3H]DA Overflow IC50.
Procedure: [^3H]-Dopamine overflow from superfused striatal slices. […] Striatal coronal slices (500 μm, 4-6 mg) were obtained and incubated for 30 minutes in Krebs' buffer (in mM: 118 NaCl, 4.7 KCl, 1.2 MgCl2, 1 NaH2PO4, 1.3 CaCl2, 11.1 glucose, 25 NaHCO3, 0.11 L-ascorbic acid and 0.004 disodium EDTA, pH 7.4, saturated with 95% O2/5% CO2) in a metabolic shaker at 34° C. Slices were incubated with 0.1 μM (final concentration) of [^3H]-dopamine during the latter 30 minutes of the 60-minute incubation period. Each slice was transferred to a glass superfusion chamber maintained at 34° C. and superfused (1 ml/min) with Krebs' buffer containing nomifensine (10 μM) and pargyline (10 μM) to inhibit [^3H]-dopamine reuptake after release into the extracellular space, ensuring that [^3H]-overflow primarily represented [^3H]-dopamine. Sample collection (5-minute; 5 mL) began after 60 minutes of superfusion. […] At the end of the experiment, each slice was solubilized, and the [^3H]-content of the tissue determined. Release during each minute was normalized for total tissue [^3H]-content. Analog-induced intrinsic activity and inhibitory activity were determined using slices from the same rat (repeated-measures design).
The amount of [^3H] in each sample was calculated by dividing the total [^3H] collected in each sample by the total in the tissue at the time of sample collection (defined as fractional release). […] Data were analyzed by weighted, least squares regression analysis of the sigmoidal concentration-effect curves to obtain EC50 and IC50 values.
Striatal slices (500 μm, 4-6 mg) were incubated for 30 minutes in Krebs' buffer (in mM: 118 NaCl, 4.7 KCl, 1.2 MgCl2, 1 NaH2PO4, 1.3 CaCl2, 11.1 glucose, 25 NaHCO3, 0.11 L-ascorbic acid and 0.004 disodium EDTA, pH 7.4, saturated with 95% O2/5% CO2) in a metabolic shaker at 34° C. Slices were incubated with 0.1 μM (final concentration) [^3H]DA during the latter 30 minutes of the 60-minute incubation period. Each slice was transferred to a glass superfusion chamber maintained at 34° C. and superfused (1 ml/min) with Krebs' buffer containing nomifensine (10 μM) and pargyline (10 μM) to inhibit [^3H]DA reuptake and metabolism, respectively, after release into the extracellular space, ensuring that [^3H]overflow primarily represents [^3H]DA. Sample collection (5-minute; 5 ml) began after 60 minutes of superfusion. […] Thus, the ability of these analogs to elicit intrinsic activity (evoke [^3H]DA overflow) was determined. At the end of the experiment, each slice was solubilized and [^3H]content of the tissue determined. Release during each minute was normalized for total [^3H]content of the slice. Analog-induced intrinsic activity and inhibitory activity were determined using slices from the same rat (repeated-measures design).
Fractional release was calculated by dividing the total tritium collected in each sample by the total tritium in the tissue at the time of sample collection. […] Typically, data were analyzed by weighted, least squares regression analysis of sigmoidal concentration-effect curves to obtain EC50 and IC50 values.
In a further data set the target is [^3H]DA Uptake. Briefly: [^3H]DA uptake inhibition (Table 11). In kind it is biochemical.
The target in a further data set is α4β2* nAChRs (Rattus norvegicus, UniProt P09483+P12390). Particulars: for Ki: read-out: [^3H]Nicotine Binding Ki.
Data set [5] concerns the target blood-brain barrier choline transporter. In kind it is in vivo, rat. As to the method:
Blood-brain barrier choline transporter affinity assays. Quaternary ammonium analogs were evaluated for their ability to inhibit [^3H]-choline uptake into brain providing an indication of the ability of these analogs to interact with the choline transporter. These assays were conducted using the in situ rat brain perfusion method of Takasato, et al., Am. J. Physiol. 1984, 247, 484, as modified by Allen and Smith, J. Neurochem., 2001, 76, 1032. […] Ki values were compared by ANOVA followed by Bonferoni's multiple comparisons test to determine if an analog inhibits [^3H]-choline uptake.
Analog affinity for, and transport by, the blood-brain barrier choline transporter.

Another data set has as its target α7* nAChRs (Rattus norvegicus, UniProt Q05941). The conditions noted are these: read-out: [^3H]MLA Binding Ki.
Data set [6] addresses T2, α7-type neuronal nicotinic acetylcholine receptors. The data set is described as follows: biochemical. Particulars: rat brain membranes, 2.5 nM [^3H]-MLA; read-out: Ki, [^3H]MLA binding.
Setting [7] is: rat striatal membranes, 3 nM [^3H]-nicotine.
Setting [8] is: rat striatal slices, nicotine 10 μM.
The mark [9] stands for this setting: rat brain membranes, […] [^3H]-MLA.
Setting [10] is: read-out: apparent Ki, inhibition of [^3H]-choline uptake into brain.
[11] abbreviates: Table 8, single inhibitor concentration 10 or 250 μM, mean (standard error), read-out: Ki, affinity for the blood brain barrier choline transporter.
Where [12] appears, read: Table 4, mean (95% confidence interval).
[13] abbreviates: 500 μM choline in perfusion fluid.

Where two headings read alike, the source gives them in different places. A value given as a limit tells only on which side of the number the result lay.

α4β2* nAChRs, sequence (P09483 31-630): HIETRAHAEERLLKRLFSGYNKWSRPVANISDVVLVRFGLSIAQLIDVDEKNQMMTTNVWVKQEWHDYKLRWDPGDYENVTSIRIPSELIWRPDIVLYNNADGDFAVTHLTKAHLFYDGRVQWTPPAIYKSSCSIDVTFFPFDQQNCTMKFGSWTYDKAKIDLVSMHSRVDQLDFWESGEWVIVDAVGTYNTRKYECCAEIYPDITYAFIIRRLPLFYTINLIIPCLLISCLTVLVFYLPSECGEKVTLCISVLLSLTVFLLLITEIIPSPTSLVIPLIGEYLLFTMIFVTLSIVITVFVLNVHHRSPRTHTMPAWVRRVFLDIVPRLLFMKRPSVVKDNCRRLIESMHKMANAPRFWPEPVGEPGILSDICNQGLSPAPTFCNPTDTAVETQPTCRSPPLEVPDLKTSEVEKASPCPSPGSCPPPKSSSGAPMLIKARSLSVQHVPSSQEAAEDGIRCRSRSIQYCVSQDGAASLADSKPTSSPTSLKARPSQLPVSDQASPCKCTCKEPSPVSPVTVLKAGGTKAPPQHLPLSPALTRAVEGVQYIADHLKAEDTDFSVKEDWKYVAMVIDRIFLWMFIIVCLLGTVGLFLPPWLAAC
α4β2* nAChRs, sequence (P12390 25-500): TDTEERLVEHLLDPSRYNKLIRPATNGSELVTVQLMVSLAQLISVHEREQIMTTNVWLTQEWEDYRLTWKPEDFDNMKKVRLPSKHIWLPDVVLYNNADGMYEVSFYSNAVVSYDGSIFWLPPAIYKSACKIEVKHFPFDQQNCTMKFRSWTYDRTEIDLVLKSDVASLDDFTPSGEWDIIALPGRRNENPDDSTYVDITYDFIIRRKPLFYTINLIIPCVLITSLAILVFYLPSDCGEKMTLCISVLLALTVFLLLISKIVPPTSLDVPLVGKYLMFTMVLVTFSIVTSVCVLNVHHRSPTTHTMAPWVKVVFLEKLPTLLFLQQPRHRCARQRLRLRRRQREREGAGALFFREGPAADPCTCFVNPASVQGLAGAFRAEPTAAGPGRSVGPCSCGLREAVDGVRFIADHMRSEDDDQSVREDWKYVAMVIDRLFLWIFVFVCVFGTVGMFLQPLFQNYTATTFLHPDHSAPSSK
T1 sequence (P09483 31-630): as the sequence (P09483 31-630) above
T1 sequence (P12390 25-500): as the sequence (P12390 25-500) above
T2 sequence (Q05941 23-502): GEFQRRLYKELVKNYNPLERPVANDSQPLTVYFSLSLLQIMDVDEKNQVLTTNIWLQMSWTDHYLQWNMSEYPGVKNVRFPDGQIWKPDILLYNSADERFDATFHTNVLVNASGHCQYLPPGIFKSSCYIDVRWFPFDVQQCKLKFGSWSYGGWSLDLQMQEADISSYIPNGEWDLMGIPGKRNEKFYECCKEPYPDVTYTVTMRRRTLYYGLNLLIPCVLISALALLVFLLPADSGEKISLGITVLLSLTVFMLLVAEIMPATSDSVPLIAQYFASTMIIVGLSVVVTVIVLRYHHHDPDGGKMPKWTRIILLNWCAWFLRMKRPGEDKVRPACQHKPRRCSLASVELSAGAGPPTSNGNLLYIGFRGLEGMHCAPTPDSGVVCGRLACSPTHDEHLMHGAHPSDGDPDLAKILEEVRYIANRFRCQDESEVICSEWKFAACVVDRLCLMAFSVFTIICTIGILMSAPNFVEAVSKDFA
α7* nAChRs, sequence (Q05941 23-502): as above
Procedure for α4β2* nAChRs: (§1) Whole brain, excluding cortex and cerebellum, was homogenized in 20 ml of ice-cold buffer, containing (in mM): 2 HEPES, 11.8 NaCl, 0.48 KCl, 0.25 CaCl2 and 0.12 MgSO4, pH 7.5. Homogenate was centrifuged (25,000 g, 15 minutes, 4° C.). Pellets were resuspended in 20 ml of buffer and incubated at 37° C., for ten minutes, cooled to 4° C. and centrifuged (25,000 g, 15 minutes, 4° C.). Pellets were resuspended and centrifuged using the same conditions. Final pellets were stored in assay buffer, containing (in mM): 20 HEPES, 118 NaCl, 4.8 KCl, 2.5 CaCl2, and 1.2 MgSO4) pH 7.5 at −70° C. Upon use, final pellets were resuspended in ˜20 ml assay buffer. […] Control was in the absence of analog. […] Incubations proceeded for 60 minutes at room temperature using 96-well plates and were terminated by harvesting on Unifilter-96 GF/B filter plates presoaked in 0.5% polyethylenimine, using a Packard FilterMate harvester.
(§2) After washing five times with 350 μl ice-cold assay buffer, filter plates were dried (60 minutes, 49° C.), bottom-sealed, and filled with Packard's MicroScint 20 cocktail (40 μl/well). After 60 minutes, filter plates were top-sealed, and radioactivity determined using a Packard TopCount. Protein concentrations were determined using bovine serum albumin as the standard.
(§3) Whole brain was homogenized in 20 ml of ice-cold buffer (in mM: 2 HEPES, 11.8 NaCl, 0.48 KCl, 0.25 CaCl2, and 0.12 MgSO4, pH 7.5). Homogenates were centrifuged (25,000 g, 15 minutes, 4° C.). Pellets were resuspended in 20 ml of buffer and incubated at 37° C., for 10 minutes, cooled to 4° C. and centrifuged (25,000 g, 15 minutes, 4° C.). Pellets were resuspended and centrifuged again using the same conditions. Final pellets were stored at −70° C. in assay buffer (in mM: 20 HEPES, 118 NaCl, 4.8 KCl, 2.5 CaCl2, and 1.2 MgSO4, pH 7.5). Upon use, final pellets were resuspended in ˜20 ml assay buffer. […] Control was in the absence of analog. […] Incubation proceeded for 60 minutes at room temperature using 96-well plates and was terminated by harvesting on Unifilter-96 GF/B filter plates, presoaked in 0.5% polyethylenimine, using a Packard FiterMate harvester. After washing 5× with 350 μl ice-cold assay buffer, filter plates were dried (60 minutes, 49° C.), bottom-sealed, and filled with Packard's MicroScint 20 cocktail (40 μl/well). After 60 minutes, filter plates were top-sealed, and radioactivity determined. Protein concentration was determined using BSA as the standard.
Procedure for α7* nAChRs: as §1, §2, §3

One may read the IC50 as the concentration at which inhibition is half-maximal. “N,N′-Hexane-1,6-diyl-bis-picolinium; Diiodide [bPiHxI]”: the Ki in data set [1] and in data set [2] was over 100 µM each time. Besides, the IC50 in [3] and in data set [4] was 1.66 µM each time.
In the case of `CN1CCC[C@H]1c1ccc[n+](CCCCCCCCCCCC[n+]2cccc([C@@H]3CCCN3C)c2)c1` [bNDDB, N,N′-Dodecane-1,12-diyl-bis-nicotinium Dibromide], the Ki was 1.43 µM in [1] (setting [7]); 43.2 ± 14.9 µM in [^3H]DA Uptake; 1.95 µM at α4β2* nAChRs (Table 7, mean (standard error)); 1.95 ± 0.19 µM at α4β2* nAChRs (Table 11). For the same compound, the IC50 in data set [3] (setting [8]) came to 4.37 µM; in data set [4] (Table 7, mean (standard error)), 0.17 µM; in data set [4] (Table 11), 0.04 ± 0.02 µM.
As to `c1ccc2c[n+](CCCCCC[n+]3ccc4ccccc4c3)ccc2c1` [bIQHxI, N,N′-Hexane-1,6-diyl-bis-isoquinolinium Diiodide], the Ki in data set [1] (setting [7]) was determined as 17.9 µM; in data set [2] (setting [9]), 16 µM. Besides, the concentration for half-maximal inhibition (IC50) in [3] (setting [8]) was over 100 µM.
For the compound `CCCC[n+]1cccc(C2CCCN2C)c1` (stereo not drawn) [NBNI], in [5] (setting [10]), the Ki was 777 ± 588 µM.
With “N,N′-Undecane-1,11-diyl-bis-picolinium Dibromide [bPiUB]”, the Ki in data set [2] is over 100 µM. Also, the 50% inhibitory concentration (IC50) in [3] and in data set [4] was 1.61 µM throughout.
Turning to “N,N′-Decane-1,10-diyl-bis-picolinium Diiodide [bPiDI]”, the Ki in data set [1] and in data set [2] was over 100 µM each time. The IC50 in data set [3] and in [4] was 0.03 µM each time.
As to `CCCCCCCC[N+](C)(C)CCO` [N-n-Octylcholine, reference compound], the Ki in [5] (setting [11]) stood at 1.7 µM.
With “N,N′-Octane-1,8-diyl-bis-picolinium Diiodide [bPiOI]”, the Ki in [1] (setting [7]) and in data set [2] (setting [9]) was over 100 µM each time. The IC50 in data set [3] (setting [8]) stood at 0.01 µM; in data set [4] (Table 10, mean (standard error)), 0.01 µM.
Take “N,N′-Nonane-1,9-diyl-bis-picolinium Dibromide [bPiNB]”: the Ki in data set [1] is 66.7 µM; in [2] it was over 100 µM; on α4β2* nAChRs, 80 µM.
Take `CCCCCCCC[n+]1ccccc1` [N-n-Octylpyridinium iodide]: the Ki in [5] (setting [11]) is 32 µM.
Same read-out and setting: with `CCCCCC[N+](C)(C)CCO` [N-n-Hexylcholine, reference compound] the figure was 2.2 µM.
For the compound `c1ccc2c(c1)ccc[n+]2CCCCCCCCCCCC[n+]1cccc2ccccc21` [bQDDB, N,N′-Dodecane-1,12-diyl-bis-quinolinium Dibromide], the half-maximal inhibitory concentration (IC50) in [3] (setting [8]) is 0.02 µM; in [4] (Table 11), 0.021 ± 0.01 µM. Further, the Ki in data set [^3H]DA Uptake worked out at 3.86 ± 0.22 µM; on α7* nAChRs (Table 11), 1.61 ± 0.21 µM; in data set [6] it was 1.57 µM.
As for `CCCCCCCC[n+]1cccc([C@@H]2CCCN2C)c1.[I-]` [NONI], the Ki in [2] (setting [9]) is over 100 µM; in data set [5] (rat, in vivo, read-out: apparent Ki, inhibition of [^3H]-choline uptake into brain) it was 49 µM; at α7* nAChRs (setting [12]) it was 12 µM. Further, the IC50 in data set [3] (setting [8]) and in data set [4] (setting [12]) was 0.62 µM each time. The “decrease of PA for [^3H]-NONI” value under setting [13] was about 25%. The “permeability-surface area product (PA) for [^3H]-NONI” value under setting [13] is given as 1.24±0.5×10^−3 ml/s/g and the “permeability-surface area product (PA) for [^3H]-NONI” value (no inhibitors present, single time point) was 1.64±0.37×10^−3 ml/s/g. Further, under “5 mM choline in perfusion fluid”, the “uptake (PA) of [^3H]-NONI” value is 7.55±3.30×10^−4 ml/s/g. Moreover, the “transfer coefficient value (Kin) for [^3H]-NONI uptake” value (rat brain, 0-60 seconds, absence of unlabeled NONI) was 1.59±0.14×10^−3 ml/s/g. Further, the “inhibition of [^3H]-NONI brain uptake by unlabeled NONI” value (unlabeled NONI 250 μM in perfusion fluid, 45 seconds uptake) stood at 46%. Besides, the “mode of interaction with the high affinity [^3H]-nicotine binding site (Scatchard analyses)” value at α4β2* nAChRs (no change in Bmax) is reported as “competitive manner”. Also, the “mode of interaction with nAChRs mediating nicotine-evoked dopamine release (Schild analysis)” value in data set [4] is recorded as “competitive manner”.
Consider `c1ccc2c[n+](CCCCCCCCCCCC[n+]3ccc4ccccc4c3)ccc2c1` [bIQDDB, N,N′-Dodecane-1,12-diyl-bis-isoquinolinium Dibromide], for which the Ki in data set [1] (setting [7]) was over 100 µM; in data set [^3H]DA Uptake, 0.27 ± 0.07 µM; on α7* nAChRs (Table 11) it was 2.21 ± 0.25 µM; in data set [6] it was 12.3 µM; on α4β2* nAChRs (Table 11) it was 6.1 ± 0.73 µM. Also, the IC50 in data set [4] (Table 11) was determined as 0.007 ± 0.003 µM.
Turning to `c1ccc2c(c1)ccc[n+]2CCCCCC[n+]1cccc2ccccc21` [bQHxI, N,N′-Hexane-1,6-diyl-bis-quinolinium Diiodide], the Ki in data set [1] (setting [7]) is over 100 µM; in data set [2] (setting [9]), 13.3 µM. Besides, the IC50 in [3] (setting [8]) was over 100 µM.
Turning to `CN1CCCC1c1ccc[n+](C)c1` (stereo not drawn) [NMNI], the Ki in data set [5] (setting [10]) was over 1000 µM.

Source of the values: patent publication US20080287490A1, “Bis-pyridino containing compounds for the use in the treatment of CNS pathologies” (UNIVERSITY OF KENTUCKY RESEARCH FOUNDATION, priority 2005, published 2008).
